Results from patent publication US6916840B2, “Spla2 inhibitors” (Eli Lilly and Company, priority 2000, dated 2005).

target: T1, recombinant human secreted phospholipase A2 (sPLA2) (Homo sapiens, UniProt P14555); test: chromogenic assay for inhibitors of recombinant human secreted phospholipase A2; format: biochemical; conditions: diheptanoyl thio-PC substrate 1 mM, Triton X-100 mixed micelles, pH 7.5, 40° C. for 30 minutes, absorbance at 405 nm, triplicate
T1 sequence (P14555 21-144): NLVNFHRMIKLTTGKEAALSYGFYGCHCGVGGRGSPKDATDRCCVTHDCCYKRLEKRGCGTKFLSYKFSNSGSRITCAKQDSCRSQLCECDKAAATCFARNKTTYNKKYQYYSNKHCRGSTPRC
From the text: The following chromogenic assay procedure was used to identify and evaluate inhibitors of recombinant human secreted phospholipase A2. The assay described herein has been adapted for high volume screening using 96 well microtiter plates. A general description of this assay method is found in the article, “Analysis of Human Synovial Fluid Phospholipase A2 on Short Chain Phosphatidylcholine-Mixed Micelles: Development of a Spectrophotometric Assay Suitable for a Microtiterplate Reader”, by Laure J. Reynolds, Lori L. Hughes, and Edward A Dennis, Analytical Biochemistry, 204, pp. 190-197, 1992 (the disclosure of which is incorporated herein by reference):
A measured volume of racemic dipheptanoyl thio PC supplied in chloroform at a concentration of 100 mg/ml is taken to dryness and redissolved in 10 millimolar TRITON X-100™ nonionic detergent aqueous solution. Reaction Buffer is added to the solution, then DTNB to give the Reaction Mixture.
The reaction mixture thus obtained contains 1 mM diheptanoly thio-PC substrate, 0.29 mm Triton X-100™ detergent, and 0.12 mm DTMB in a buffered aqueous solution at pH 7.5.
• 1. Add 0.2 ml reaction mixture to all wells; • 2. Add 10 ul test compound (or solvent blank) to appropriate wells, mix 20 seconds; • 3. Add 50 nanograms of sPLA2 (10 microliters) to appropriate wells; • 4. Incubate plate at 40° C. for 30 minutes; • 5. Read absorbance of wells at 405 nanometers with an automatic plate reader.
Tests were done in triplicate. Typically, compounds were tested at a final concentration of 5 ug/ml. […] Lack of color development at 405 nanometers evidenced inhibition. Compounds initially found to be active were re-assayed to confirm their activity and, if sufficiently active, IC50 values were determined. […] In all cases, % inhibition measured at 405 nanometers generated by enzyme reactions containing inhibitors relative to the uninhibited control reactions was determined. Each sample was titrated in triplicate and result values were averaged for plotting and calculation of IC50 values. IC50 values were determined by plotting log concentration versus inhibition values in the range from 10-90% inhibition.

Structure (SMILES) | IC50
Cc1c(C(=O)C(N)=O)c2c(OCC(=O)O)cc3ccccc3c2n1CC1CCCCC1 [Example 4, 2-[[3-(2-Amino-1,2-dioxoethyl)-2-methyl-1-cyclohexylmethyl-1H-benz[g]indol-4-yl]oxy]acetic acid] | 0.011 µM
Cc1c(C(=O)C(N)=O)c2c(OCC(=O)O)cc3ccccc3c2n1Cc1cccc(-c2ccc(F)cc2)c1 [Example 6, 2-[[3-(2-Amino-1,2-dioxoethyl)-2-methyl-1-[3-(4-fluorophenyl)benzyl]-1H-benz[g]indol-4-yl]oxy]acetic acid.] | 0.021 µM
COC(=O)COc1cc2ccccc2c2c1c(C(=O)C(N)=O)c(C)n2CC1CCCCC1 [Example 3, 2-[[3-(2-amino-1,2-dioxoethyl)-2-methyl-1-cyclohexylmethyl-1H-benz[g]indol-4-yl]oxy]acetic acid methyl ester] | 0.148 µM
CCc1c(C(=O)C(N)=O)c2c(OCC(=O)OC)cc3ccccc3c2n1Cc1ccccc1 [Example 1, 2-[[3-(2-Amino-1,2-dioxoethyl)-2-ethyl-1-benzyl-1H-benz[g]indol-4-yl]oxy]acetic acid methyl ester hemihydrate] | 0.048 µM
CCc1c(C(=O)C(N)=O)c2c(OCC(=O)O)cc3ccccc3c2n1Cc1ccccc1 [Example 2, 2-[[3-(2-Amino-1,2-dioxoethyl)-2-ethyl-1-benzyl-1H-benz[g]indol-4-yl]oxy]acetic acid] | 0.01 µM
COC(=O)COc1cc2ccccc2c2c1c(C(=O)C(N)=O)c(C)n2Cc1cccc(-c2ccc(F)cc2)c1 [Example 5, 2-[[3-(2-Amino-1,2-dioxoethyl)-2-methyl-1-[3-(4-fluorophenyl)benzyl]-1H-benz[g]indol-4-yl]oxy]acetic acid methyl ester] | 0.176 µM

tested on: not given; test: not given; conditions: not given

Structure (SMILES) | melting point
CCc1c(C(=O)C(N)=O)c2c(OCC(=O)OC)cc3ccccc3c2n1Cc1ccccc1 (hydrate or solvate) [Example 1, 2-[[3-(2-Amino-1,2-dioxoethyl)-2-ethyl-1-benzyl-1H-benz[g]indol-4-yl]oxy]acetic acid methyl ester hemihydrate] | 165 to 167 °C
